Source: patent publication EP4140481A1, “PROTEIN-OLIGOMER BINDING AGENTS AND THERAPEUTIC USES THEREOF” (Galyan Bio, Inc., priority 2021, dated 2023)

Columns and labels:
[1] = test system: C. elegans; test: C. elegans differential gene expression (RNA-Seq); format: in vivo; conditions: vs. vehicle control
Method: […]. Both young (adult day 3) and aged (adult day 10) worms were collected from the same population of worms tested in lifespan assay.
Technical Background and Data Visualization Guide: Differential gene expression was performed with EdgeR using […] likelihood ratio tests based on fitting linear models. The likelihood ratios were used to determine the p-values which were subsequently corrected for using the BH false discovery rate (fdr) method. Eventually, differential expressed genes (DEG) were defined as genes with fdr-corrected p-value of 0.05 or lower, as well as a change in expression of at least 2-fold in a given between-group comparison. In this study, the following comparisons groups were used: Table 36: Comparison groups for differential gene expression
[…]. All DEG shown have P values under the cutoff of 0.05; […]. Gene function annotations collected from WormBase and human orthologs are predicted by DRSC Integrative Ortholog Prediction Tool (DIOPT, www.flyrna.org). […] […]. All DEG shown have P values under the cutoff of 0.05; […]. Gene function annotations collected from WormBase and human orthologs are predicted by DRSC Integrative Ortholog Prediction Tool (DIOPT, www.flyrna.org).

[2] = biological target: T1, Amyloid-β 1-40 (Ab40) (Homo sapiens, UniProt P05067); test: Dynamic Light Scattering (DLS), induced aggregation; format: biochemical; conditions: equimolar Compound 4
T1 construct: purchased rPeptide, Watkinsville, Georgia A-1153-2
T1 sequence (P05067 672-711): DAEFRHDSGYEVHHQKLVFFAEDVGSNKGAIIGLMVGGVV
Method: (§1) Proteins were ultracentrifuged with 50,000 rpm (rounds per minute) for one hour at 2 °C. The supernatant was used for DLS measurements. DLS measurements were conducted with Malvern Zetasizer Nano (Malvern Panalytical Ltd, United Kingdom).
Amyloid-β 1-40 (Ab40) (catalog A-1153-2, rPeptide, Watkinsville, Georgia) Sequence
The aliquots of lyophilized Amyloid-β 1-40 (Ab40) peptide were hydrated at room temperature in 50 mM phosphate buffer pH 7.4 and 100 mM NaCl (Buffer 1)
The aliquots of lyophilized Ab peptide were hydrated at room temperature in 75 mM MOPS pH 7.4 and 2 mM CaCl2 (Buffer 2)

[3] = biological target: T2, A30P mutant α-Synuclein (Homo sapiens, UniProt P37840, A30P); test: as above; format: biochemical
T2 construct: purchased rPeptide, Watkinsville, Georgia S-1005-2
Method: as §1
A30P mutant α-Synuclein (catalog S-1005-2, rPeptide, Watkinsville, Georgia) was solved in 20 mM phosphate, pH 7.4 buffer.

[4] = test system: R6/2 mice; test: Grip strength in R6/2 mice of Huntington's disease; format: in vivo; conditions: 33 mg/kg i.p. QD; versus vehicle treated R6/2 mice
Method: Methods ― Total of 20 female and male R6/2 mice and 10 female and male wild-type littermate control mice (WT) were used in the study. The mice were genotyped and the R6/2 mice were divided into different treatment groups based on their litter and baseline body weight. The treatment with Vehicle or Compound 22 (33 mg/kg; 5 ml/kg, i.p. QD) was started at 4 weeks of age after the baseline behavioral tests (Figure 6). Body weights were measured at 3 weeks of age and twice a week until the end of the study.
The experimental groups were: • Group 1) 10 wild-type mice (mixed gender) treated with Vehicle (5 ml/kg, i.p., QD) starting at 4 weeks of age • Group 2) 10 R6/2 mice (mixed gender) treated with Vehicle (5 ml/kg, i.p., QD) starting at 4 weeks of age • Group 3) 10 R6/2 mice (mixed gender) treated with Compound 22 (33 mg/kg; 5 ml/kg, i.p. QD) starting at 4 weeks of age
Compound Delivery and Dosing - Treatment with Compound 22 (33 mg/kg; 5 ml/kg, i.p. QD) or Vehicle was started at age week 4 and continued until the 12 weeks of age. […]
Mice were taken to the experimental room and, one at a time, were placed on the grip strength apparatus (San Diego Instruments, San Diego, USA) in such a way that the animal grabbed a small mesh grip with its forepaws. […] Five scores were recorded per animal in consecutive sequence, and the average of three best scores for each animal was used for the results. […]

[5] = Buffer 1, Ab40 154 µM, 100% of Ab40
[6] = by intensity, Buffer2, Ab40 155 µM
[7] = by number, 100 µM equimolar Compound 4
[8] = by volume, 100 µM equimolar Compound 4

Question: Which results are given for `CCc1c(C)[nH]c2ccc(C(=O)NCCN(CC)CC)cc12` [Compound 4, N-(2-(diethylamino)ethyl)-3-ethyl-2-methyl-1H-indole-5-carboxamide]?
Answer: cyp-35A1 Log2(fold change) ([1]; Day 3, 200 nM): 3.04; cyp-35B1 Log2(fold change) ([1]; Day 3, 200 nM): 3.41; cyp-35B2 Log2(fold change) ([1]; Day 3, 200 nM): 9.18; cyp-35B3 Log2(fold change) ([1]; Day 3, 200 nM): 12.96; irg-4 Log2(fold change) ([1]; Day 3, 200 nM): 1.37; irg-5 Log2(fold change) ([1]; Day 3, 200 nM): 2.09; pgp-13 Log2(fold change) ([1]; Day 3, 200 nM): 3.55; C18H9.6 Log2(fold change) ([1]; Day 3, 2 µM): 1.16; C29F3.7 Log2(fold change) ([1]; Day 3, 2 µM): 1.25; D1086.3 Log2(fold change) ([1]; Day 3, 2 µM): 1.19; F15B9.6 Log2(fold change) ([1]; Day 3, 2 µM): 1.57; F55G11.2 Log2(fold change) ([1]; Day 3, 2 µM): 2.80; T19B10.2 Log2(fold change) ([1]; Day 3, 2 µM): 1.79; cpr-4 Log2(fold change) ([1]; Day 3, 2 µM): 1.35; cyp-33A1 Log2(fold change) ([1]; Day 3, 2 µM): 1.27; cyp-35A1 Log2(fold change) ([1]; Day 3, 2 µM): 8.58; cyp-35B1 Log2(fold change) ([1]; Day 3, 2 µM): 5.05; cyp-35B2 Log2(fold change) ([1]; Day 3, 2 µM): 11.26; cyp-35B3 Log2(fold change) ([1]; Day 3, 2 µM): 15.81; cyp-35C1 Log2(fold change) ([1]; Day 3, 2 µM): 2.17; far-3 Log2(fold change) ([1]; Day 3, 2 µM): 1.66; gst-5 Log2(fold change) ([1]; Day 3, 2 µM): 2.71; irg-4 Log2(fold change) ([1]; Day 3, 2 µM): 3.88; irg-5 Log2(fold change) ([1]; Day 3, 2 µM): 5.88; pgp-13 Log2(fold change) ([1]; Day 3, 2 µM): 5.44; ugt-44 Log2(fold change) ([1]; Day 3, 2 µM): 1.45; cyp-35A1 Log2(fold change) ([1]; Day 10, 200 nM): 4.25; cyp-35B1 Log2(fold change) ([1]; Day 10, 200 nM): 1.62; cyp-35B2 Log2(fold change) ([1]; Day 10, 200 nM): 5.71; cyp-35B3 Log2(fold change) ([1]; Day 10, 200 nM): 11.65; irg-4 Log2(fold change) ([1]; Day 10, 200 nM): 1.22; irg-5 Log2(fold change) ([1]; Day 10, 200 nM): 2.12; pgp-13 Log2(fold change) ([1]; Day 10, 200 nM): 4.36; F55G11.2 Log2(fold change) ([1]; Day 10, 2 µM): 1.70; K08D8.6 Log2(fold change) ([1]; Day 10, 2 µM): 1.45; cpr-4 Log2(fold change) ([1]; Day 10, 2 µM): 1.80; cyp-35A1 Log2(fold change) ([1]; Day 10, 2 µM): 6.81; cyp-35B1 Log2(fold change) ([1]; Day 10, 2 µM): 2.06; cyp-35B2 Log2(fold change) ([1]; Day 10, 2 µM): 6.61; cyp-35B3 Log2(fold change) ([1]; Day 10, 2 µM): 13.40; cyp-35C1 Log2(fold change) ([1]; Day 10, 2 µM): 1.60; gst-5 Log2(fold change) ([1]; Day 10, 2 µM): 2.42; irg-4 Log2(fold change) ([1]; Day 10, 2 µM): 2.95; irg-5 Log2(fold change) ([1]; Day 10, 2 µM): 4.26; pgp-13 Log2(fold change) ([1]; Day 10, 2 µM): 6.36; mean size, distribution by number [2, 5]: 141.5 nm; mean size, distribution by volume [2, 5]: 208.5 nm; Size, Peak 1 ([2]; by intensity, Buffer2 (MOPS, CaCl2), Ab40 155 µM): 304.8 nm; % Intensity, Peak 1 [2, 6]: 55.5%; % Intensity, Peak 2 [2, 6]: 33.5%; % Intensity, Peak 3 [2, 6]: 6.1%; Size, Peak 2 [2, 6]: 77.06 nm; Size, Peak 3 [2, 6]: 0.7710 nm; % Number, Peak 1 [3, 7]: 100,0%; Size, Peak 1 [3, 7]: 86,77 nm; % Volume, Peak 1 [3, 8]: 36.1%; % Volume, Peak 2 [3, 8]: 36.3%; % Volume, Peak 3 [3, 8]: 27.6%; Size, Peak 1 [3, 8]: 107.0 nm; Size, Peak 2 [3, 8]: 313.6 nm; Size, Peak 3 [3, 8]: 3063 nm; aggregation of oligomers of A30P ([3]; equimolar Compound 4): induces the formation of aggregates of oligomers of A30P

Question: With `Cc1[nH]c2ccc(C(=O)NCCN(C(C)C)C(C)C)cc2c1C` [Compound 22] as the compound, how does the grip strength [4] read?
Answer: Its grip strength is “no significant differences”.
